Measurements taken from patent US20040023901A1, “Nucleoside 5'-monophosphate mimics and their prodrugs” (priority 2002, published 2004).
Read-outs that look alike come from different tables or passages of the source.

Tests used:
[1] = target: purified human type II IMPDH (Homo sapiens, UniProt P12268); test: Assay for inhibition of IMPDH activity (human type II); assay type: biochemical; settings: 50 uM IMP, 150 uM NAD, 25° C.
Description: (§1) The assays employed to measure the inhibition of inosine monophosphate dehydrogenase (IMPDH) activity are described below. The effectiveness of the compounds of the present invention as inhibitors of IMPDH enzymes was determined in the following assays. This assay was used to measure the ability of the nucleotide mimics of the present invention to inhibit the enzymatic reaction catalyzed by IMPDH enzymes. The assay is useful for measuring the activity of IMPDH from several organisms, including human, fungal, and bacterial isoforms. In the enzymatic reaction, the oxidation of inosine 5′-monophosphate (IMP) to xanthosine 5′-monophosphate (XMP) is coupled to the reduction of nicotinamide adenine dinucleotide (NAD). This reaction is monitored at 340 nm using a UV/VIS spectrophotometer or at 474 nm using a fluorometer (excitation wavelength=344 nm). This assay is a modification of a reported method (W. Wang and L. Hedstrom, “A Potent ‘Fat Base’ Nucleotide Inhibitor of IMP Dehydrogenase,” Biochemistry 1998, 37, 11949-52).
(§2) Assay Buffer Conditions: (200 uL-total/reaction)
(§3) 30 nM purified human type II IMPDH, or
(§4) 7.5 nM purified Candida albicans IMPDH
(§5) The compounds were tested at various concentrations up to 500 uM final concentration. The standard IMPDH assay is performed in a 96-well plate (Corning). An appropriate volume of assay buffer, containing the substrates IMP and NAD, was pipetted into the plate wells. Nucleoside derivatives of the present invention were added to the reactions at the desired concentrations. The reactions were initiated by the addition of enzyme. The reactions were allowed to proceed for 5 minutes at 25° C. The production of NADH was monitored at 340 nm on a microplate spectrophotometer (Molecular Devices Corp, Sunnyvale, Calif.). Initial velocity data (mA min^−1) was collected and fit to the equations below. Blank reactions were prepared in parallel with the test reactions in which enzyme was omitted from the reactions, substituted by an appropriate volume of enzyme diluent.
(§6) The percentage of inhibition was calculated according to the following equation:
(§7) % Inhibition=[1−(mA min^−1 in test reaction−mA min^−1 in blank)/(mA min^−1 in control reaction−mA min^−1 in blank)]×100.
(§8) Each inhibitor was titrated over an appropriate range of concentrations, and inhibition constants were determined using the following equations where v=initial velocity, Vm=maximal velocity, S=substrate, I=inhibitor, Km=Michaelis constant, and Ki=inhibition constant:
(§9) Michaelis-Menten Equation: […]
(§10) Competitive Inhibition Equation:
(§11) Inhibition constants (Ki) for irreversible inhibitors of IMPDH were determined using the following three equations where kobs=observed rate constant, t=time, A=absorbance at time t, A0=initial absorbance at time zero, V0=initial rate, S=substrate, I=inhibitor, k2=[…] rate constant, Km=Michaelis constant, Ki, app=apparent inhibition constant, and Ki=inhibition constant:
(§12) Irreversible Inhibition Equations 1-3:
(§13) A−A0=V0[1−exp(−kobst)] (equation 1)
(§14) Kobs=k2[I]/(Ki, app+[I]) (equation 2)

[2] = target: purified Candida albicans IMPDH (Candida albicans, UniProt O00086); test: Assay for inhibition of IMPDH activity (C. albicans); assay type: biochemical; settings: for Ki: C. albicans IMPDH, 50 uM IMP, 150 uM NAD, 25° C.; for inhibition at 100 µM: read-out: % Inhibition at 100 μM C. albicans
Chain of purified Candida albicans IMPDH (O00086 whole entry): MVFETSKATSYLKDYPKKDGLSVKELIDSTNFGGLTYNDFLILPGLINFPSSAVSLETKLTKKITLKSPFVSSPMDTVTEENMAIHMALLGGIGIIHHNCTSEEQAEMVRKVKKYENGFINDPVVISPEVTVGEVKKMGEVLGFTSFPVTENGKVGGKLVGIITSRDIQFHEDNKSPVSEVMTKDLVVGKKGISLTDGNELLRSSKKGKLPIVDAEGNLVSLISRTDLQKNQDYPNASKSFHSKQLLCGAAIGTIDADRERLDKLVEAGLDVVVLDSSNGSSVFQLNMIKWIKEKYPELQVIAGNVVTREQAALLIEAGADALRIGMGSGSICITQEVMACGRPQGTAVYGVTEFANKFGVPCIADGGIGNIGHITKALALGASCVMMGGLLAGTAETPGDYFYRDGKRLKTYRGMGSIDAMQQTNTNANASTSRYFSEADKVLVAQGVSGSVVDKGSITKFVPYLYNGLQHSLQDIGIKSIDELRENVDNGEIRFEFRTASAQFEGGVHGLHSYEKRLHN
Description: as §1, §2, §3, §4, §5, §6, §7, §8, §9, §10, §11, §12, §13, §14

in vitro = settings: bovine, 10% (v/v) fetal calf serum, pH 7.4
Description: (§15) Fetal calf serum purchased from HyClone Corporation was mixed 1:1 with each compound containing Tris-HCl buffer and MgCl2. Typically the total volume used for the experiment was 500 μl.
(§16) The final concentrations of the reaction components were as follows:
(§17) The reaction mixtures were made up and incubated at 37° C. At appropriate times aliquots of 25 μl were removed and added to 65 μl ice-cold methanol. These solutions were incubated for at least one hour at −20° C. and typically overnight. After incubation samples were centrifuged for at least 20 minutes at high speed in a microcentrifuge. The supernatant was transferred to a clean tube and the extract was dried under vacuum in a LabConco Centrivap Concentrator. The dried extracts were resuspended in dH2O and filtered to remove particulate before analysis on reverse phase HPLC.
(§18) The reverse phase HPLC columns used for the analysis were either a Phenomenex C18 Aqua column (2×100 mm) or the Phenomenex C18 Aqua column (3×150 mm) used with the appropriate guard column. The HPLC was run at 0.2 ml/min (for the 2×100 mm column) or at 0.5 ml/min (for the 3×150 mm column) with the following buffer system: 5 mM tetrabutylammonium acetate, 50 nM ammonium phosphate, and an acetonitrile gradient running from 5% up to as high as 60%. The amount of remaining parent compound at each time point was used to determine the half-life of the compound. […] Unmodified nucleoside monophosphates were used as positive controls.

[3] = Serum stability assessment in fetal calf serum; settings: 10% (v/v) fetal calf serum, 37° C., 500 μM nucleotide mimic, time points through 24 hours
Description: as §15, §16, §17, §18

[4] = bovine
Description: as §15, §16, §17, §18

NC(=O)c1ncn([C@@H]2O[C@H](CO[PH](O)=S)[C@H](O)C2O)n1 (stereo partly drawn) [Compound 53, 1-[5-O-(H-Thiophosphonyl)-β-D-ribofuranosyl]-1,2,4-triazole-3-carboxamide]
Ki [1]: 34.7 µM | Ki [2]: 10.7 µM

NC(=O)c1ncn([C@@H]2O[C@H](CC(F)(F)P(=O)(O)O)[C@H](O)C2O)n1 (stereo partly drawn) [Compound 48]
Ki [1]: 27.1 µM | Ki [2]: 20.4 µM | half-life at 500 μM (in vitro): > 24 h

NC(=O)c1ncn([C@@H]2O[C@H](CP(=O)(O)O)[C@H](O)C2O)c1O (stereo partly drawn) [Compound 44, 4-Carbamoyl-1-[5-deoxy-5-(dihydroxyphosphinyl)-β-D-ribofuranosyl]-1,3-imidazolium-5-olate]
Ki [1]: 7.92 µM | inhibition at 100 µM [2]: 98.1%

NC(=O)c1ncn([C@@H]2O[C@H](C[PH](=O)O)[C@H](O)C2O)n1 (stereo partly drawn) [Compound 40, 1-[5-Deoxy-5-(hydroxyl-H-phosphinyl)-β-D-ribofuranosyl]-11,24-triazole-3-carboxamide]
half-life at 500 μM (in vitro): > 24 h

C#Cc1c(C(N)=O)ncn1[C@@H]1O[C@H](COP(=O)(O)O)[C@@H](O)[C@H]1O [EICAR 5′-monophosphate]
Serum t1/2 [3]: 3 h

NC(=O)c1ncn([C@@H]2O[C@H](CP(=O)(O)O)[C@@H](O)[C@H]2O)n1 [Compound 39, 1-[5-Deoxy-5-(dihydroxyphosphinyl)-β-D-ribofuranosyl]-1,2,4-triazole-3-carboxamide]
Ki [1]: 1.82 µM | Ki [2]: 1.48 µM

NC(=O)c1ncn([C@@H]2O[C@H](COP(=O)(O)O)[C@@H](O)[C@H]2O)n1 [Ribavirin 5′-monophosphate]
Serum t1/2 [3]: 6 h

NC(=O)c1ncn([C@@H]2O[C@H](CC(F)(F)P(=O)(O)O)[C@H](O)C2O)c1O (stereo partly drawn) [Compound 50, 4-Carbamoyl-1-[5,6-dideoxy-6-(dihydroxyphosphinyl)-6,6-difluoro-β-D-allofuranosyl]-1,3-imidazolium-5-olate]
Ki [1]: 2.04 µM | inhibition at 100 µM [2]: 71.5%

NC(=O)c1ncn([C@@H]2O[C@H](COP(=O)(O)S)[C@H](O)C2O)n1 (stereo partly drawn) [Compound 1, 1-β-D-ribofuranosyl-1,2,4-triazole-3-carboxamide 5′-phosphothioate]
Ki [1]: 0.94 µM | Ki [2]: 1.34 µM | half-life at 500 μM (in vitro): 18 h

5-Ethynyl-1-(5-methylphopsphonyl-β-D-ribofuranosyl)imidazole-4-carboxamide [Compound 10]
Serum t1/2 [4]: >8 h

NC(=O)c1ncn([C@@H]2O[C@H](COCP(=O)(O)O)[C@@H](O)[C@H]2O)n1 [Compound 19, 1-[5-O-(Dihydroxyphosphinyl)methyl-β-D-ribofuranosyl]-1,2,4-triazole-3-carboxamide]
Ki [1]: 85 µM

C#Cc1c(C(N)=O)ncn1[C@@H]1O[C@H](COP(=O)(O)S)[C@H](O)C1O (stereo partly drawn) [Compound 2, 5-Ethynyl-1-(1-D-ribofuranosyl)imidazole-4-carboxamide 5′-phosphorothioate]
Ki [1]: 34.2 µM | inhibition at 100 µM [2]: 82%
